# Measured values reported in patent publication US9926276B2, “Substituted benzamides with activity towards EP4 receptors” (DRACONIS PHARMA, S.L., priority 2013, dated 2018).
# Key:
# human EP4 receptor [1] = biological target: T1, human EP4 receptor (Homo sapiens, UniProt P35408); assay: Measurement of cAMP responses by Homogeneous Time Resolved Fluorescence (Test 2); type: cell-based; parameters: expressed in transfected cells; conditions: at 10 μM; PGE2 1 nM, HEK-293 cells stably expressing human EP4
# Procedure: Test 2: Measurement of cAMP Responses by Homogeneous Time Resolved Fluorescence
# cAMP measurements on HEK-293 cells that stably expressed human EP4 receptors were performed by using a system based on Homogeneous Time Resolved Fluorescense (HTRF). This technology allows the direct measurement of cAMP in living cells. The principle of this assay is based on competition between cAMP produced by cells and cAMP-d2 conjugate for the binding with monoclonal anti-cAMP-cryptate conjugate. The HTRF cAMP kit from CisBio was used according to the manufacturer's directions. The experimental procedure was performed as stated below.
# Suspended cells (30,000 cells per well) were added to 96-well culture plates in 30 μl of Optimem supplemented with 500 μM IBMX. Compounds were then added in 10 μl of stimulation buffer and incubated at 25° C. for 30 minutes followed by 10 μl of PGE2 to a final concentration of 1 nM. After 30 minutes at 25° C., the reaction was stopped lysing the cells with a mixture of 25 μl of cryptate and 25 μl of cAMP-d2 prepared in the lysis buffer supplied by the manufacturer. Plates were incubated for an additional hour at room temperature and read at 665 nm/620 nm using an UltraEvolution Plate reader (Tecan).
# Antagonist percentage inhibition was calculated relating compounds activity to the 0% inhibition of the wells incubated with 1 nM PGE2 alone and 100% inhibition of the wells incubated with 1 nM PGE2 plus 1 μM of the reference antagonist.
# human EP4 receptor [2] = biological target: T1, human EP4 receptor; assay: Human EP4 receptor radioligand binding assay (Test 1); parameters: expressed in transfected cells; host or cells: HEK-293 cell membranes; conditions: [3H]-PGE2 1 nM, transfected HEK-293 cell membranes; for Results of Test 1 (Binding assay, % inh): at 10 μM; for inhibition at 10 µM: read-out: Results of Test 1 (Binding assay, % inh)
# Procedure: Test 1: Human EP4 Receptor Radioligand Binding Assay
# To investigate binding properties of EP4 receptor ligands to human EP4 receptor, transfected HEK-293 cell membranes and [3H]-PGE2 (Perkin Elmer) were used. In 96-well plates the assay was carried out with a total reaction volume of 250 μl, containing 25 μl of membrane suspension (30 μg protein/well), 25 μl of [3H]-PGE2 (1 nM) in either absence or presence of 25 μl of either buffer or PGE2 (10 μM) for total and non-specific binding, respectively. Binding buffer contained 25 mM MES, 10 mM MgCl2 and 1 mM EDTA at pH 6.0. Plates were incubated at 25° C. for 120 minutes. After the incubation period, 200 μl of incubate were transferred to MultiScreen HTS, FB plates (Millipore), filtered and plates were washed 6 times with ice-cold 10 mM MES, 0.01% BSA at pH 6.0. Filters were dried and counted in a MicroBeta scintillation counter (Perkin-Elmer) using EcoScint liquid scintillation cocktail.
# Percentage inhibition was calculated relating compounds activity to the 0% inhibition of the wells incubated with 1 nM [3H]-PGE2 alone (total binding) and 100% inhibition of the wells incubated with 1 nM [3H]-PGE2 plus 10 μM PGE2 (non-specific binding).
# T1 sequence (P35408 whole entry): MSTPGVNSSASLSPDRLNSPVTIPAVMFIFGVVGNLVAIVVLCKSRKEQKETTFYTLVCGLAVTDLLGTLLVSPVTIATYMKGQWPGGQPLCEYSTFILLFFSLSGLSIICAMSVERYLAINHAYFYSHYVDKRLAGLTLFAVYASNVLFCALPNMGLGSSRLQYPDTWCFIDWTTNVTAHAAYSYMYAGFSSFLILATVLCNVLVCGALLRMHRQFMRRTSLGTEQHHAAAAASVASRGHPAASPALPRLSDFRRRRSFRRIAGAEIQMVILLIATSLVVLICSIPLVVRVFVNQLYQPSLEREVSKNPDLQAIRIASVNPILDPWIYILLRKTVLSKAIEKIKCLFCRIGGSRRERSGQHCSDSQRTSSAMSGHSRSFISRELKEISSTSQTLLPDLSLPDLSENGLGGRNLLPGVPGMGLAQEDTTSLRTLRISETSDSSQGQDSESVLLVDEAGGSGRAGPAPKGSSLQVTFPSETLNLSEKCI
Compound,inhibition at 10 µM (human EP4 receptor [2]),"Results of Test 2 (Functional assay, antagonist % inh) (human EP4 receptor [1])","Results of Test 1 (Binding assay, % inh) (human EP4 receptor [2])"
"COc1cccc(-c2ccc(Cl)c(C(=O)Nc3c(C)cc(C(=O)O)cc3C)c2)c1 [Example 1, 4-(4-Chloro-3′-methoxybiphenyl-3-ylcarboxamido)-3,5-dimethylbenzoic acid]",–,$ (% inh >75),# (% inh >75)
"Cc1cc(C(=O)O)cc(C)c1NC(=O)c1cc(-c2cccc(CO)c2)ccc1Cl [Example 2, 4-(4-Chloro-3′-(hydroxymethyl)biphenyl-3-ylcarboxamido)-3,5-dimethylbenzoic acid]",–,$ (% inh >75),# (% inh >75)
"COc1cccc(-c2ccc(C)c(C(=O)Nc3c(C)cc(C(=O)O)cc3C)c2)c1 [Example 3, 4-(3′-Methoxy-4-methylbiphenyl-3-ylcarboxamido)-3,5-dimethylbenzoic acid]",–,$ (% inh >75),# (% inh >75)
"CC(C)COc1ccc(Cl)c(C(=O)Nc2ccc(C(=O)O)cc2Cl)c1 [Example 26, 3-Chloro-4-(2-chloro-5-isobutoxybenzamido)benzoic acid]",> 75%,–,–
"Cc1cc(C(=O)O)cc(Cl)c1NC(=O)c1cc(OCC(C)C)ccc1Cl [Example 27, 3-Chloro-4-(2-chloro-5-isobutoxybenzamido)-5-methylbenzoic acid]",> 75%,–,–
"COc1cc(C(=O)O)ccc1NC(=O)c1cc(OCC(C)C)ccc1Cl [Example 28, 4-(2-Chloro-5-isobutoxybenzamido)-3-methoxybenzoic acid]",> 75%,–,–
"O=C(Nc1c(F)c(F)c(C(=O)O)c(F)c1F)c1cc(OCc2ccc(F)cc2F)ccc1Cl [Example 37, 4-(2-Chloro-5-(2,4-difluorobenzyloxy)benzamido)-2,3,5,6-tetrafluorobenzoic acid]",45 to 75%,–,–
"Cc1c(NC(=O)c2cc(-c3cccc(Cl)c3)ccc2Cl)cccc1C(=O)O [Example 39, 3-(3′,4-Dichlorobiphenyl-3-ylcarboxamido)-2-methylbenzoic acid]",–,–,# (% inh >75)
"Cc1ccc(C(=O)O)cc1NC(=O)c1cc(-c2cccc(Cl)c2)ccc1Cl [Example 40, 3-(3′,4-Dichlorobiphenyl-3-ylcarboxamido)-4-methylbenzoic acid]",–,–,# (% inh >75)
"O=C(O)c1ccc(Cl)c(NC(=O)c2cc(-c3cccc(Cl)c3)ccc2Cl)c1 [Example 41, 4-Chloro-3-(3′,4-dichlorobiphenyl-3-ylcarboxamido)benzoic acid]",–,–,# (% inh >75)
"Cc1ccc(C(=O)O)cc1NC(=O)c1cc(OCC(C)C)ccc1Cl [Example 44, 3-(2-Chloro-5-isobutoxybenzamido)-4-methylbenzoic acid]",> 75%,–,–
"CC(C)COc1ccc(Cl)c(C(=O)Nc2c(Cl)cc(C(=O)O)cc2Cl)n1 [Example 49, 3,5-Dichloro-4-(3-chloro-6-isobutoxypicolinamido)benzoic acid]",> 75%,–,–
"O=C(O)c1cc(Cl)c(NC(=O)c2nc(NCC3CC3)ccc2Cl)c(Cl)c1 [Example 50, 3,5-Dichloro-4-(3-chloro-6-(cyclopropylmethylamino)picolinamido)benzoic acid]",> 75%,–,–
"O=C(O)c1cc(Cl)c(NC(=O)c2nc(NC3CCCC3)ccc2Cl)c(Cl)c1 [Example 51, 3,5-Dichloro-4-(3-chloro-6-(cyclopentylamino)picolinamido)benzoic acid]",> 75%,–,–
"COCCN(C)c1ccc(Cl)c(C(=O)Nc2c(Cl)cc(C(=O)O)cc2Cl)n1 [Example 53, 3,5-Dichloro-4-(3-chloro-6-((2-methoxyethyl)(methyl)amino)-picolinamido)benzoic acid]",> 75%,–,–
"CCCCN(C)c1ccc(Cl)c(C(=O)Nc2c(Cl)cc(C(=O)O)cc2Cl)n1 [Example 54, 4-(6-(Butyl(methyl)amino)-3-chloropicolinamido)-3,5-dichlorobenzoic acid]",> 75%,–,–
"CCN(CC)c1ccc(Cl)c(C(=O)Nc2c(Cl)cc(C(=O)O)cc2Cl)n1 [Example 55, 3,5-Dichloro-4-(3-chloro-6-(diethylamino)picolinamido)benzoic acid]",> 75%,–,–
"CCCNc1ccc(Cl)c(C(=O)Nc2c(Cl)cc(C(=O)O)cc2Cl)n1 [Example 56, 3,5-Dichloro-4-(3-chloro-6-(propylamino)picolinamido)benzoic acid]",> 75%,–,–
"CCN(C(=O)c1cc(OCC(C)C)ccc1Cl)c1c(Cl)cc(C(=O)O)cc1Cl [Example 66, 3,5-Dichloro-4-(2-chloro-5-isobutoxy-N-ethylbenzamido)benzoic acid]",> 75%,–,–
"CC(C)COc1ccc(Cl)c(C(=O)N(CC(C)C)c2c(Cl)cc(C(=O)O)cc2Cl)c1 [Example 67, 3,5-Dichloro-4-(2-chloro-5-isobutoxy-N-isobutylbenzamido)benzoic acid]",> 75%,–,–
"CCN(C(=O)c1cc(OCc2ccc(F)cc2F)ccc1Cl)c1c(Cl)cc(C(=O)O)cc1Cl [Example 69, 3,5-Dichloro-4-(2-chloro-5-(2,4-difluorobenzyloxy)-N-ethylbenzamido)benzoic acid]",> 75%,–,–
"CCN(C(=O)c1cc(OCc2ccc(Cl)cc2F)ccc1Cl)c1c(Cl)cc(C(=O)O)cc1Cl [Example 70, 3,5-Dichloro-4-(2-chloro-5-(4-chloro-2-fluorobenzyloxy)-N-ethylbenzamido)benzoic acid]",> 75%,–,–

# Further lines, with some results ahead:
inhibition at 10 µM (human EP4 receptor [2]),Compound,"Results of Test 2 (Functional assay, antagonist % inh) (human EP4 receptor [1])","Results of Test 1 (Binding assay, % inh) (human EP4 receptor [2])"
> 75%,"O=C(O)c1cc(Cl)c(NC(=O)c2cc(OCc3ccccc3)ccc2Cl)c(Cl)c1 [Example 29, 4-(5-(Benzyloxy)-2-chlorobenzamido)-3,5-dichlorobenzoic acid]",–,–
> 75%,"CC(C)Oc1ccc(Cl)c(C(=O)Nc2c(Cl)cc(C(=O)O)cc2Cl)c1 [Example 30, 3,5-Dichloro-4-(2-chloro-5-isopropoxybenzamido)benzoic acid]",–,–
> 75%,"COc1ccc(Cl)c(C(=O)Nc2c(Cl)cc(C(=O)O)cc2Cl)c1 [Example 31, 3,5-Dichloro-4-(2-chloro-5-methoxybenzamido)benzoic acid]",–,–
> 75%,"O=C(O)c1cc(Cl)c(NC(=O)c2cc(OCC3CCC3)ccc2Cl)c(Cl)c1 [Example 32, 3,5-Dichloro-4-(2-chloro-5-(cyclobutylmethoxy)benzamido)benzoic acid]",–,–
> 75%,"CCOc1ccc(Cl)c(C(=O)Nc2c(Cl)cc(C(=O)O)cc2Cl)c1 [Example 33, 3,5-Dichloro-4-(2-chloro-5-ethoxybenzamido)benzoic acid]",–,–
> 75%,"CC(C)(C)COc1ccc(Cl)c(C(=O)Nc2c(Cl)cc(C(=O)O)cc2Cl)c1 [Example 34, 3,5-Dichloro-4-(2-chloro-5-(neopentyloxy)benzamido)benzoic acid]",–,–
> 75%,"Cc1ccc(C(=O)O)cc1NC(=O)c1cc(-c2nccc(C(F)(F)F)n2)ccc1Cl [Example 43, 3-(2-Chloro-5-(4-(trifluoromethyl)pyrimidin-2-yl)benzamido)-4-methylbenzoic acid]",–,–
> 75%,"Cc1ccc(CC2CCCCC2)cc1C(=O)Nc1c(Cl)cc(C(=O)O)cc1Cl [Example 61, 3,5-Dichloro-4-(5-(cyclohexylmethyl)-2-methylbenzamido)benzoic acid]",–,–
> 75%,"O=C(O)c1cc(Cl)c(NC(=O)c2cc(Cc3ccccc3)ccc2Cl)c(Cl)c1 [Example 62, 4-(5-Benzyl-2-chlorobenzamido)-3,5-dichlorobenzoic acid]",–,–
> 75%,"CC(C)Cc1ccc(Cl)c(C(=O)Nc2c(Cl)cc(C(=O)O)cc2Cl)c1 [Example 63, 3,5-Dichloro-4-(2-chloro-5-isobutylbenzamido)-benzoic acid]",–,–
> 75%,"Cc1ccc(C(=O)O)cc1NC(=O)c1cc(OCc2ccccc2)ccc1Cl [Example 71, Sodium 3-(5-(benzyloxy)-2-chlorobenzamido)-4-methylbenzoate]",–,–
